Data on 12 compounds can be found in US8106055B2, “Substituted amide compounds” (Gruenenthal GmbH, priority 2007, dated 2012).

Structures are written as SMILES.

The target of one test is T1, human μ opiate receptor (Homo sapiens, UniProt P35372).
T1 construct: purchased PerkinElmer Life Sciences, Zaventem, Belgium RB-HOM; host or cells: CHO-K1 cells (membrane preparation)
Briefly: Affinity for the human μ opiate receptor ([3H]-naloxone displacement, CHO-K1 receptor membrane preparation, SPA). The note with it: test concentration of 1 μM. Type of test: binding. In a few lines: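 CHO-K1 membranes expressing human μ receptor incubated 90 min at room temperature with 1 nmol/l [3H]-naloxone and WGA-SPA beads in 50 mmol/l Tris-HCl, 0.06% BSA; 100 μmol/l naloxone defines non-specific binding. Values are % inhibition of specific binding at 1 μM; IC50 converted to Ki by Cheng-Prusoff.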

For test [1], the target named is T2, serotonin (5-HT) reuptake (Rattus norvegicus, UniProt P31652).
T2 construct: synaptosomes are freshly isolated from areas of the rat brain; from tissue; host or cells: rat brain synaptosomes (P2 fraction)
Briefly: Inhibition of serotonin (5HT) reuptake in synaptosomes from rat brain. Type of test: biochemical. The conditions noted are these: test concentration of 10 μM. In a few lines: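 Freshly isolated rat brain synaptosomes (P2 fraction) used for 5-HT reuptake. Test compound at 10 μM, activity given as % inhibition.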

T2 sequence (P31652 whole entry): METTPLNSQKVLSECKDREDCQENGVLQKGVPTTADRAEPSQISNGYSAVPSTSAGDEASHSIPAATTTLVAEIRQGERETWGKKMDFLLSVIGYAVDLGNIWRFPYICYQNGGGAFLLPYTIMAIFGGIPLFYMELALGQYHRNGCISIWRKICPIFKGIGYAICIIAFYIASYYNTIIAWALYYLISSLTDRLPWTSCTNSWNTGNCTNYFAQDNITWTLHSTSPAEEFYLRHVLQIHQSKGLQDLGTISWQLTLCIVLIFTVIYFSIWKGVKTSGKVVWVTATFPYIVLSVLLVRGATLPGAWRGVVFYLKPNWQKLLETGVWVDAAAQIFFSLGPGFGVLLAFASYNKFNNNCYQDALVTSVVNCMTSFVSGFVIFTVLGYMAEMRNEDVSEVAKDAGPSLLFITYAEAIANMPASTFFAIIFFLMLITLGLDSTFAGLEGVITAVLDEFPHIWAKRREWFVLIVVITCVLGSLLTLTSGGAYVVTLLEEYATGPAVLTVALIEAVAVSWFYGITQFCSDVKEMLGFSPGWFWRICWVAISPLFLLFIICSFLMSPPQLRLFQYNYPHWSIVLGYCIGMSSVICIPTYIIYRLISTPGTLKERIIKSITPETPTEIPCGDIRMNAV
T1 sequence (P35372 whole entry): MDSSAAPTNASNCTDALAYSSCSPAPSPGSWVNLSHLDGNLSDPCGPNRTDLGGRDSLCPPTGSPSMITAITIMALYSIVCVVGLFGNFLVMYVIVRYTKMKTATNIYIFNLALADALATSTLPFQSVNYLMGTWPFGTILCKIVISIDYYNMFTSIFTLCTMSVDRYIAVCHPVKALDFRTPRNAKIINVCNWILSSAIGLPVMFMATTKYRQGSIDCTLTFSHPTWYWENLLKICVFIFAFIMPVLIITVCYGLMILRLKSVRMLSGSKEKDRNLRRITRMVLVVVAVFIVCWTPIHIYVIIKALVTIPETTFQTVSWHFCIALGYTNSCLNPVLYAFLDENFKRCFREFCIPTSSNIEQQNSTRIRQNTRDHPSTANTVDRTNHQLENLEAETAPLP

As for `CN(C)C(c1ccc(F)cc1)C1CCC(NC(=O)COCCN2CCN(S(=O)(=O)c3ccccc3)CC2)CC1` (stereo not drawn) [Example 502], the “μ (binding on the μ opioid receptor, % inhibition)” value on human μ opiate receptor turned out to be 33%. The “5-HT (inhibition of reuptake of serotonin, % inhibition)” value in test [1] was found to be 97%.
Turning to `Cc1ccc(S(=O)(=O)N2CCC(OCC(=O)NCC3CCC(C(CCc4ccccc4)N(C)C)CC3)C2)cc1` (stereo not drawn) [Example 538], the “μ (binding on the μ opioid receptor, % inhibition)” value on human μ opiate receptor is reported as 25%. In addition, the “5-HT (inhibition of reuptake of serotonin, % inhibition)” value in test [1] was 91%.
As to `COc1cc(C)c(S(=O)(=O)N(CCOCC(=O)NC2CCC(C(c3ccc(F)cc3)N(C)C)CC2)Cc2ccccc2)c(C)c1C` (stereo not drawn) [Example 523], the “μ (binding on the μ opioid receptor, % inhibition)” value on human μ opiate receptor is 34%. Further, in test [1], the “5-HT (inhibition of reuptake of serotonin, % inhibition)” value is listed as 81%.
Consider `COc1cc(C)c(S(=O)(=O)N2CCC(OCC(=O)NCCC3CCC(C(c4ccc(Cl)cc4)N(C)C)CC3)C2)c(C)c1` (stereo not drawn) [Example 492], for which the “μ (binding on the μ opioid receptor, % inhibition)” value at human μ opiate receptor is reported as 44%. Further, the “5-HT (inhibition of reuptake of serotonin, % inhibition)” value in test [1] was determined as 97%.
Taken in the same sequence, the figures for `COc1cc(C)c(S(=O)(=O)N2CCC(CCOCC(=O)NCCC3CCC(C(c4ccc(F)cc4)N(C)C)CC3)CC2)c(C)c1C` (stereo not drawn) [Example 510] were 33% and 99%.
Taken in the same sequence, the figures for `COc1ccc(S(=O)(=O)N(C)CCOCC(=O)NCCC2CCC(C(c3ccc(F)cc3)N(C)C)CC2)cc1` (stereo not drawn) [Example 519] were 39% and 88%.
Taken in the same sequence, the figures for `CN(C)C(c1ccc(F)cc1)C1CCC(CNC(=O)COC2CCN(S(=O)(=O)c3ccccc3)C2)CC1` (stereo not drawn) [Example 532] were 35% and 99%.
In the case of `COc1cc(C)c(S(=O)(=O)N(C)CCOCC(=O)NCC2CCC(C(CCc3ccccc3)N(C)C)CC2)c(C)c1` (stereo not drawn) [Example 525], the “μ (binding on the μ opioid receptor, % inhibition)” value on human μ opiate receptor is reported as 31%. In test [1], the “5-HT (inhibition of reuptake of serotonin, % inhibition)” value is given as 84%.
The like results for `CN(C)C(c1ccc(F)cc1)C1CCC(CNC(=O)COC2CCN(S(=O)(=O)c3ccc(Cl)cc3)C2)CC1` (stereo not drawn) [Example 517] were, in that order, 40% and 86%.
On to `COc1ccc(S(=O)(=O)N2CCC(OCC(=O)NC3CCC(C(c4ccc(F)cc4)N(C)C)CC3)C2)cc1OC` (stereo not drawn) [Example 512], for which the “μ (binding on the μ opioid receptor, % inhibition)” value at human μ opiate receptor stood at 42%. Moreover, the “5-HT (inhibition of reuptake of serotonin, % inhibition)” value in test [1] is 86%.
The like results for `COc1ccc(S(=O)(=O)N(C)CCOCC(=O)NCC2CCC(C(c3ccc(F)cc3)N(C)C)CC2)cc1` (stereo not drawn) [Example 508] were, in that order, 31% and 80%.
The like results for `CN(C)C(c1ccc(F)cc1)C1CCC(CCNC(=O)COCCN2CCN(S(=O)(=O)c3ccccc3)CC2)CC1` (stereo not drawn) [Example 493] were, in that order, 34% and 96%.
